Activity calls are given as the source filed them.
Key:
[1] = target: T1, Zinc finger protein mex-5 (Caenorhabditis elegans, UniProt Q9XUB2); assay: potency of MEX-5 RNA-binding blockers – biochemical, C. elegans, fluorescence polarization, dose response (AID 1960)
T1 sequence (Q9XUB2 whole entry): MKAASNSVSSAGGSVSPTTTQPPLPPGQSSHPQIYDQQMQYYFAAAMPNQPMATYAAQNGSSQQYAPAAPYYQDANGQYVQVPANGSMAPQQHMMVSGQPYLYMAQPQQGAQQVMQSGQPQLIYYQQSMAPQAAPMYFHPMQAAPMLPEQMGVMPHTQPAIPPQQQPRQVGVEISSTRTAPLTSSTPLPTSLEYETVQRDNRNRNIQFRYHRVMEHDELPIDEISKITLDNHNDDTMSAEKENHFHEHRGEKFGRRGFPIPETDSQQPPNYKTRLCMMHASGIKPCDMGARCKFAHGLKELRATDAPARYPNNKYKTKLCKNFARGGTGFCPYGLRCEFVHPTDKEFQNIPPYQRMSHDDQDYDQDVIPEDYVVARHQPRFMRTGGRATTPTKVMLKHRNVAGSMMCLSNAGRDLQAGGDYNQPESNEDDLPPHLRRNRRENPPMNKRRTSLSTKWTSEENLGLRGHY

[2] = target: T2, Endoribonuclease toxin MazF (Escherichia coli K-12, UniProt P0AE70); assay: substrate-only fluorescence increase artefacts – biochemical, single-stranded RNase substrate, counter-screen for MazEF activator project, dose response (AID 588502); format: functional
T2 sequence (P0AE70 whole entry): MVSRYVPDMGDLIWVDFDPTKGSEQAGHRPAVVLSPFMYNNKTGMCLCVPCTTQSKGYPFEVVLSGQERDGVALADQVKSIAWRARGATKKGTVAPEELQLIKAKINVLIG

[3] = target: T3, Sentrin-specific protease 6 (Homo sapiens, UniProt Q9GZR1); format: functional;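 also: Luminescence-based dose-response confirmatory assay of SENP6 inhibition, following up an ultra-high-throughput screen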
T3 sequence (Q9GZR1 whole entry): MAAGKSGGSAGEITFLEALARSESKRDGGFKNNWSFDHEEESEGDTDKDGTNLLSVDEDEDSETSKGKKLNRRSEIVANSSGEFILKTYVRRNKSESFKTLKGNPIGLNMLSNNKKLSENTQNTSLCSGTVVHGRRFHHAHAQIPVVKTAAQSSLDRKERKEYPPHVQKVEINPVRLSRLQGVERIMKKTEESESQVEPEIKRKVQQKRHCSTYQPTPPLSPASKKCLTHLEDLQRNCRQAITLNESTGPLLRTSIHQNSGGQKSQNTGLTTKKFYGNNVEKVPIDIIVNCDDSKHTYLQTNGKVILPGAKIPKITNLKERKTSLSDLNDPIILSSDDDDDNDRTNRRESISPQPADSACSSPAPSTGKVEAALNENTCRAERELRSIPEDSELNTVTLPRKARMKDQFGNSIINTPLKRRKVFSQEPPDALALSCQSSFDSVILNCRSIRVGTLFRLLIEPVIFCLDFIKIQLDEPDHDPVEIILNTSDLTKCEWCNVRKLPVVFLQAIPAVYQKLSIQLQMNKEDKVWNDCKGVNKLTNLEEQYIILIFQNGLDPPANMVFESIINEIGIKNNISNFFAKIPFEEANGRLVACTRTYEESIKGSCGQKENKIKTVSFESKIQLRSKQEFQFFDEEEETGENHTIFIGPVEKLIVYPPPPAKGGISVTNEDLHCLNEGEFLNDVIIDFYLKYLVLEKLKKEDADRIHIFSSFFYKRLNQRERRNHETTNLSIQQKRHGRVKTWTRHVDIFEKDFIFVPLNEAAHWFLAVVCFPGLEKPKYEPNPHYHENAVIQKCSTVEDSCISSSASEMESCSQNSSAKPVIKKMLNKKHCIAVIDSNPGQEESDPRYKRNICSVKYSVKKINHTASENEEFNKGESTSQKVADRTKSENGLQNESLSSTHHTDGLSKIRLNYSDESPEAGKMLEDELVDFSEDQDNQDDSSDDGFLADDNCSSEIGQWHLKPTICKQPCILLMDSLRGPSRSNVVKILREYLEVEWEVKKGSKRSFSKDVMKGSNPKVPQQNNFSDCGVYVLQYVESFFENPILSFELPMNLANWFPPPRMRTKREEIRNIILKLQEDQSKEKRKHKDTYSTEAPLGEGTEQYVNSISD

[4] = target: T4, Sentrin-specific protease 8 (Homo sapiens, UniProt Q96LD8); format: functional;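 also: luminescence read-out of SENP8 inhibition, dose-response confirmation following an ultra-high-throughput screen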
T4 sequence (Q96LD8 whole entry): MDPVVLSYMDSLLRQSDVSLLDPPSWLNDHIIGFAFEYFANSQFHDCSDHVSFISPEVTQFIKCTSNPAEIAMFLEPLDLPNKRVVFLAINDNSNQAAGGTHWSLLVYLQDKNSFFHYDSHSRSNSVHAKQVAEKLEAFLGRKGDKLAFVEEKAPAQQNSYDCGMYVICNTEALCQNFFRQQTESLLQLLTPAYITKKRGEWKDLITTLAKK

[5] = target: T5, Microphthalmia-associated transcription factor (Homo sapiens, UniProt O75030); assay: reducers of TRPM1 reporter luminescence, concentration series – cell-based, SK-MEL-5, cherry-picked, set 3, MITF inhibitor project, dose response (AID 493073); format: functional;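 also: SK-MEL-5 melanoma cells with luciferase driven by the MITF target TRPM1 promoter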
T5 sequence (O75030 whole entry): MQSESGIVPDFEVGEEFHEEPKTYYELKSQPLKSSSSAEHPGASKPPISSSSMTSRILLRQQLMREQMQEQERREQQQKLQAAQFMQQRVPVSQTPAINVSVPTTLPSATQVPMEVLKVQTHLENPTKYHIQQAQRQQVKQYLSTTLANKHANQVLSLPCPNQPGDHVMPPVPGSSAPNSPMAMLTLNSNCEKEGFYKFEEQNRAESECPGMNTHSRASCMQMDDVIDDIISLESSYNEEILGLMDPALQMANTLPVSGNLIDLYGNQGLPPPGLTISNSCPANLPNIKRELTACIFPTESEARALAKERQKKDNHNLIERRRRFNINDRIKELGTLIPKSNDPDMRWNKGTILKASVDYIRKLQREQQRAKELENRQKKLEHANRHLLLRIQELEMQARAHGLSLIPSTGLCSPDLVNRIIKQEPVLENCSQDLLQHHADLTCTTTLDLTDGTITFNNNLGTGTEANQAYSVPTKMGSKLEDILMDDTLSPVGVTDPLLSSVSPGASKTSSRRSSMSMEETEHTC

[6] = viability loss in MITF-independent A375 cells – cell-based, CellTiter-Glo luminescence, dry powder, set 2, counter-screen for MITF inhibitor project, dose response (AID 624489); format: functional; details: A-375;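 also: actives are compounds lowering A375 viability meaning general cytotoxicity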
[7] = target: Serine/threonine-protein phosphatase PP1-alpha catalytic subunit (Homo sapiens, UniProt P62136); assay: inhibition of protein phosphatase 1 activity – biochemical, fluorescence, dose response (AID 2394)
[8] = IC50 of Artemis nuclease activity blockers – biochemical, fluorescence intensity, dose response (AID 720701); format: functional;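 also: Artemis endonuclease enzyme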

Serine/threonine-protein phosphatase PP1-alpha catalytic subunit, sequence (P62136 whole entry): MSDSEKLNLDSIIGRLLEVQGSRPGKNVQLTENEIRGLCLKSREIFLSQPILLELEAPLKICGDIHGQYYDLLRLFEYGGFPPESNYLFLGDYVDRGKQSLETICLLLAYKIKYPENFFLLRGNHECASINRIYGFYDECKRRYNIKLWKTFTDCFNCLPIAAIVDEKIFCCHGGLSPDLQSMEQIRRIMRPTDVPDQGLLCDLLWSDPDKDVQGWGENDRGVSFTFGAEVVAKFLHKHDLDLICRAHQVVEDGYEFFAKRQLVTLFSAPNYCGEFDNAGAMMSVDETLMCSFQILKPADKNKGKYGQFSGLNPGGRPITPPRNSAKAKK

Compound	EC50 [1]	EC50 [2]	IC50 [3]	IC50 [4]	AC50 [5]	AC50 [6]	IC50 [7]	IC50 [8]
Oc1[nH]c2ccccc2c1N=Nc1ccc(F)cc1	> 300 µM (inconclusive)	> 99 µM (inactive)	2.03 µM (active)	3.07 µM (active)				
O=C1C(Nc2ccccc2)=C(N2CCCCC2)C(=O)c2ccccc21					6.67 µM (active)	24.9 µM (active)	> 67 µM (not active)	18.9 µM (active)
